Series [1] is described as follows: Effect of amino acids on sincalide recovery and related impurities. The series is classed as physicochemical. The conditions noted are these: for improvement in sincalide recovery vs control without lysine: lyophilized formulations. As for the experimental part:
Experiments were conducted to evaluate several amino acids as potential stabilizers of sincalide, including the non-polar (hydrophobic) methionine residue, aspartic acid and glutamic acid, the polar glycine and cysteine residues, and the basic lysine and arginine amino acids. […]
For comparison to the non-polar amino acid methionine as a potential processing stabilizer, polar amino acids such as glycine and cysteine were also evaluated. Formulations containing these amino acids were exposed to air in open vials and compared to product in closed vials. […] Table 23 presents the sincalide recoveries for experimental formulations containing variable concentrations of methionine, cysteine or glycine. […]

A short description of series [2]: Effect of antioxidants on sincalide formulation stability (HPLC). As to conditions: for % Sincalide / % Total Sincalide-Related Impurities: antioxidant 10 μg/mL; for effect of antioxidant on sincalide stability (in words): antioxidant 10 μg/mL in reconstituted sincalide formulation, over 15 hours. As for the experimental part: An experiment was performed to evaluate the addition of antioxidants as stabilizing agents to prevent sincalide oxidation in formulations of sincalide (formulations for Example 4 contained 85 mg/mL mannitol, 0.005 mg/mL TWEEN® 20, 2.75 mg/mL KH2PO4, 1.0 mg/mL DTPA, 2.0 mg/mL methionine, 7.5 mg/mL lysine, 15 mg/mL arginine, 0.0025 mg/mL sincalide (Bulk formulation), except placebos which contained no sincalide.) The formation of sincalide methionine (Met 3 or Met 6) monosulfoxides, desulfated sincalide and unknown degradants was investigated. The effectiveness of sodium metabisulfite, ascorbic acid, cysteine, glutathione, sodium sulfate, benzalkonium chloride, and benzethonium chloride in inhibiting the degradation of sincalide in terms of their effect on sincalide recovery and sincalide-related impurities, was evaluated by HPLC.
The effect of various antioxidants on the stabilization of sincalide was evaluated on open and sealed sincalide formulations over 15 hours. The antioxidants were separately added at a concentration of 10 μg/mL to water-reconstituted lyophilized sincalide formulations containing all formulation ingredients except antioxidant. Spiked and unspiked solutions were pooled, subdivided, and either exposed to or protected from air over 15 hours. The sincalide and total sincalide-related impurities were monitored by reversed-phase HPLC with gradient elution and UV detection at 215 nm to compare the effectiveness of the antioxidants.
To optimize the level of sodium metabisulfite in the formulation, lyophilized sincalide formulations were prepared containing four levels of sodium metabisulfite (0, 10, 30, and 60 μg/vial), as summarized in Table 13. Samples at each concentration were maintained under unstressed and stressed (65 ° C., 64 hours) storage conditions, and were subsequently assayed by HPLC. The “% sincalide” was determined, and the “% (Met 6) monosulfoxide” (tR≈19.7 min.) was monitored as an indication of sincalide oxidation.
Another experiment was conducted under longer-term accelerated storage conditions utilizing a sincalide formulation with the optimized concentration (40 μg/vial) of sodium metabisulfite to confirm the protective effect on the degradation of sincalide. Sincalide lyophilized formulations with and without the antioxidant from the same batch were heat-stressed at 40° C. and 60° C. for 6 weeks. Also, formulations without sincalide from the same batch were heat-stressed at 40° C. for 8 months.

Where [3] appears, read: Table 23, bulk formulation, amino acid 2.0 mg/mL Bulk.
The mark [4] stands for this setting: Table 23, bulk formulation, amino acid 2.5 mg/mL Bulk.
Setting [5] is: bulk formulation, L-Methionine 0.00 mg/mL Bulk.
[6] abbreviates: bulk formulation, L-Methionine 0.025 mg/mL Bulk.
Setting [7] is: bulk formulation, L-Methionine 0.50 mg/mL Bulk.
Setting [8] is: bulk formulation, L-Methionine 2.0 mg/mL Bulk.

For `NCCCCC(N)C(=O)O` (racemic) [DL-Lysine], the entries for the “improvement in sincalide recovery vs control without lysine” value in series [1] (3 weeks storage at 40° C.) and in series [1] (5 weeks storage at 40° C.) were 50% and 75%, respectively.
Consider `O=C1O[C@H]([C@@H](O)CO)C(O)=C1O` [Ascorbic Acid], for which the “% Sincalide” value in series [2] (Open, 1 h) was found to be 98.0%; in series [2] (Open, 8 h), 98.0%; in series [2] (Open, 15 h) it was 97.8%; in series [2] (Sealed, 0 h) it was 98.1%; in series [2] (Sealed, 7 h), 98.0%; in series [2] (Sealed, 14 h), 97.8%. In addition, the “% Total Sincalide-Related Impurities” value in series [2] (Open, 1 h) is given as 2.00%; in series [2] (Open, 8 h) it was 2.01%; in series [2] (Open, 15 h), 2.16%; in series [2] (Sealed, 0 h), 1.95%; in series [2] (Sealed, 7 h) it was 2.05%; in series [2] (Sealed, 14 h) it was 2.25%.
With `CC(C)(C)CC(C)(C)c1ccc(OCCOCC[N+](C)(C)Cc2ccccc2)cc1` [Benzethonium Chloride], in series [2], the “effect of antioxidant on sincalide stability (in words)” value is “significant destabilizing effect”. Besides, the “% Sincalide” value in series [2] (Open, 1 h) is reported as 92.1%; in series [2] (Open, 8 h) it was 88.0%; in series [2] (Open, 15 h) it was 92.6%; in series [2] (Sealed, 0 h) it was 97.9%; in series [2] (Sealed, 7 h), 98.0%; in series [2] (Sealed, 14 h), 98.0%. For the same compound, the “% Total Sincalide-Related Impurities” value in series [2] (Open, 1 h) is listed as 7.93%; in series [2] (Open, 8 h) it was 12.0%; in series [2] (Open, 15 h) it was 7.36%; in series [2] (Sealed, 0 h), 2.13%; in series [2] (Sealed, 7 h) it was 1.98%; in series [2] (Sealed, 14 h) it was 1.96%.
For `N[C@@H](CS)C(=O)O` [Cysteine], the “% Sincalide” value in series [2] (Open, 1 h) is on record as 97.8%; in series [2] (Open, 8 h), 97.7%; in series [2] (Open, 15 h), 98.0%; in series [2] (Sealed, 0 h), 98.2%; in series [2] (Sealed, 7 h) it was 98.1%; in series [2] (Sealed, 14 h), 98.1%. Further, the “% Total Sincalide-Related Impurities” value amounted to 2.20% in series [2] (Open, 1 h); 2.32% in series [2] (Open, 8 h); 2.05% in series [2] (Open, 15 h); 1.85% in series [2] (Sealed, 0 h); 1.87% in series [2] (Sealed, 7 h); 1.91% in series [2] (Sealed, 14 h).
On to `N[C@@H](CCC(=O)N[C@@H](CS)C(=O)NCC(=O)O)C(=O)O` [Glutathione], for which the “% Sincalide” value is 98.1% in series [2] (Open, 1 h); 98.2% in series [2] (Open, 8 h); 97.9% in series [2] (Open, 15 h); 98.1% in series [2] (Sealed, 0 h); 98.3% in series [2] (Sealed, 7 h); 98.2% in series [2] (Sealed, 14 h). The “% Total Sincalide-Related Impurities” value in series [2] (Open, 1 h) was found to be 1.94%; in series [2] (Open, 8 h), 1.85%; in series [2] (Open, 15 h) it was 2.13%; in series [2] (Sealed, 0 h), 1.90%; in series [2] (Sealed, 7 h), 1.74%; in series [2] (Sealed, 14 h), 1.82%.
As to `N[C@@H](CS)C(=O)O` [L-Cysteine], in series [1] (setting [3]), the “Related impurities (%), Closed” value is given as 1.0% and the “Related impurities (%), Open” value is 31.0%.
For `NCC(=O)O` [L-Glycine], in series [1] (setting [3]), the “Related impurities (%), Closed” value is reported as 1.1% and the “Related impurities (%), Open” value was 51.1%. Moreover, in series [1] (setting [4]), the “Related impurities (%), Closed” value is given as 1.6% and the “Related impurities (%), Open” value is reported as 44.9%.
As for `CSCC[C@H](N)C(=O)O` [L-Methionine], the “Related impurities (%), Closed” value was determined as 0.7% in series [1] (setting [3]); 0.7% in series [1] (setting [4]); 1.3% in series [1] (setting [5]); 1.0% in series [1] (setting [6]); 0.8% in series [1] (setting [7]); 0.7% in series [1] (setting [8]). Further, the “Related impurities (%), Open” value in series [1] (setting [3]) worked out at 6.4%; in series [1] (setting [4]), 10.5%; in series [1] (setting [5]), 52.7%; in series [1] (setting [6]) it was 35.9%; in series [1] (setting [7]), 19.3%; in series [1] (setting [8]), 15.0%.
Turning to `O=S([O-])S(=O)(=O)[O-].[Na+].[Na+]` [Sodium Metabisulfite], the “% Sincalide” value turned out to be 98.2% in series [2] (Open, 1 h); 98.3% in series [2] (Open, 8 h); 98.2% in series [2] (Open, 15 h); 98.3% in series [2] (Sealed, 0 h); 98.3% in series [2] (Sealed, 7 h); 98.3% in series [2] (Sealed, 14 h). The “% Total Sincalide-Related Impurities” value in series [2] (Open, 1 h) is recorded as 1.76%; in series [2] (Open, 8 h) it was 1.69%; in series [2] (Open, 15 h) it was 1.79%; in series [2] (Sealed, 0 h), 1.67%; in series [2] (Sealed, 7 h), 1.66%; in series [2] (Sealed, 14 h), 1.73%.
On to `O=S(=O)([O-])[O-].[Na+].[Na+]` [Sodium Sulfate], for which the “effect of antioxidant on sincalide stability (in words)” value in series [2] was “essentially equivalent to the control formulation”. Moreover, the “% Sincalide” value was determined as 98.3% in series [2] (Open, 1 h); 98.2% in series [2] (Open, 8 h); 98.1% in series [2] (Open, 15 h); 98.2% in series [2] (Sealed, 0 h); 98.1% in series [2] (Sealed, 7 h); 98.2% in series [2] (Sealed, 14 h). The “% Total Sincalide-Related Impurities” value in series [2] (Open, 1 h) was found to be 1.70%; in series [2] (Open, 8 h), 1.78%; in series [2] (Open, 15 h), 1.92%; in series [2] (Sealed, 0 h), 1.76%; in series [2] (Sealed, 7 h), 1.90%; in series [2] (Sealed, 14 h) it was 1.81%.
Take Benzalkonium Chloride: the “% Sincalide” value in series [2] (Open, 1 h) came out at 82.7%; in series [2] (Open, 8 h), 88.4%; in series [2] (Open, 15 h), 82.9%; in series [2] (Sealed, 0 h), 97.8%; in series [2] (Sealed, 7 h), 97.7%; in series [2] (Sealed, 14 h) it was 97.4%. For the same compound, the “% Total Sincalide-Related Impurities” value in series [2] (Open, 1 h) stood at 17.3%; in series [2] (Open, 8 h), 11.6%; in series [2] (Open, 15 h) it was 17.1%; in series [2] (Sealed, 0 h), 2.21%; in series [2] (Sealed, 7 h), 2.34%; in series [2] (Sealed, 14 h), 2.58%.

Values taken from US6803046B2, “Sincalide formulations” (Bracco International B.V., priority 2002, dated 2004).
